Results taken from patent US20250186388A1, “ACTIVE SUBSTANCES FOR MEDICAL USE” (INFLAMED PHARMA GMBH, priority 2020, published 2025).
Counter-ions that a name gives are not always drawn.

What was measured:
[1] = test system: rabbits incubated with E. coli; conditions: cited from earlier work
[2] = Solubility in octanol (content in the organic phase by UV/VIS spectroscopy, pH values); type: physicochemical; conditions: for pH value: solubility test in octanol
Experimental: Solubility tests were carried out in octanol and the content in the organic phase was investigated by UV/VIS spectroscopy and the pH values.

[3] = rabbits incubated with E. coli, lidocaine administration

| Structure (SMILES) | incidence of pulmonary oedema ([1]; compared to a comparison group) | albumin content in the bronchoalveolar lavage ([1]; lidocaine group) | leucocytes in the bronchoalveolar lavage ([1]; lidocaine group) | haemorrhages, alveolar septal thickening and number of inflammatory cells in the alveolar space ([1]; rabbit, in vivo) | lung mechanics (compliance, resistance) [1, 3] | paO2 [1, 3] | Content (solubility in octanol, content in the organic phase) [2] | pH value [2] |
| --- | --- | --- | --- | --- | --- | --- | --- | --- |
| CCN(CC)CC(=O)Nc1c(C)cccc1C [lidocaine] | reduced incidence | lower | fewer | visibly reduced | improved | increase | – | – |
| CCN(CC)CCOC(=O)c1ccc(N)cc1 [Procaine, 4-aminobenzoic acid-2-(N,N-diethylamino)ethyl ester] | – | – | – | – | – | – | completely dissolved (100%) | 8.5 |
| CCN(CC)CCOC(=O)c1ccc(N)cc1 [Procaine hydrochloride] | – | – | – | – | – | – | 8% | 4.5 |
